Experimental findings from article PMC5441875 (eLife, 2017) are described below.

Data set [1] concerns GluN1-P532PSAA/GluN2A receptors. Briefly: Potentiation by the positive allosteric modulator GNE-6901, whole-cell patch-clamp. The format is cell-based, rat. The procedure:
(§1) Receptor functionality and light-sensitivity were assessed in patch-clamp recordings of lifted whole cells 24–72 hr post transfection. Positively transfected cells were visualized by GFP-fluorescence. […] The osmolarity was 270–290 mOsm. The cells were continuously perfused with a Ringer solution containing (in mM): 140 NaCl, 2.8 KCl, 1 CaCl2, 0.01 DTPA, 10 HEPES and five sucrose (pH 7.3 with NaOH). The osmolarity was 290 mOsm. DTPA was added to prevent tonic inhibition of NMDARs by ambient zinc ([Paoletti et al., 1997]). Currents were recorded using an Axopatch 200B amplifier and a Digidata 1550A interface (Molecular Devices), sampled at 10–20 kHz, and low-pass filtered at 2–5 kHz. The cells were voltage-clamped at −60 mV. pClamp 10.5 (Molecular Devices) was used to acquire the data. All recordings were performed at room temperature.
Agonists or other pharmacological substances were applied using a multi-barrel rapid solution exchanger system (RSC 200, Bio-Logic). […] The agonist deactivation kinetics were assessed by including the converse co-agonist to the control solution. […]
(§2) Computer-controlled light pulses during electrophysiological recordings were provided from sensitive high power LEDs (Prizmatix). […] The LED port was directly coupled via a microscope adaptor to the fluorescence port of an inverted DIAPHOT 300 Nikon microscope. […]

Data set [2] concerns the target T1, WT GluN1/GluN2A receptors (Rattus norvegicus, UniProt P35439+Q00959). Described as above. The format is cell-based. Also on record: expressed in transfected cells; host or cells: HEK-293 cells (ATCC), PEI transfection, pcDNA3-based vectors. The procedure: as §1
(§3) Agonists or other pharmacological substances were applied using a multi-barrel rapid solution exchanger system (RSC 200, Bio-Logic). […] The agonist deactivation kinetics were assessed by including the converse co-agonist to the control solution. For Mg^2+-DRCs, the concentration of DTPA, which has orders of magnitude higher affinity for Zn^2+ than Mg^2+ ([Paoletti et al., 1997]), was reduced to 1 µM to avoid excessive Mg^2+ chelation, while maintaining depletion of ambient zinc (estimated in the few hundreds of nM). Accordingly, Mg^2+ concentrations reported in the Mg^2+-DRC were not corrected and correspond to the nominal concentrations of added Mg^2+. MK-801 was applied at 1 μM to assure full inhibition of WT NMDAR-mediated currents. The positive allosteric modulator (PAM) GNE-6901 (obtained from Genentech, South San Francisco, USA) was used at a final concentration of 30 μM ([Hackos et al., 2016]).
as §2

In data set [3] the test system is GluN1-P532PSAA/GluN2A receptors. In words: MK-801 open channel block kinetics, whole-cell patch-clamp. The format is cell-based, rat. The procedure:
as §1, §3
(§4) Computer-controlled light pulses during electrophysiological recordings were provided from sensitive high power LEDs (Prizmatix). The three following LEDs were used: Mic-LED-365 (UV, 200 mW), UHP-Mic-LED-460 (blue, 2W) and UHP-Mic-LED-520 (green, 900 mW). The LED port was directly coupled via a microscope adaptor to the fluorescence port of an inverted DIAPHOT 300 Nikon microscope. The output beams of the three Mic-LEDs were joined by a dichroic beam combiner module and the resulting light was applied to the center of the recording dish through a 10X objective (Leitz Wetzlar). The light intensity of all three LEDs was set to 100%, unless otherwise noted.
(§5) Current traces obtained in electrophysiological recordings were transferred to Igor Pro (version 6.3) or Clampfit (version 10.5) for display and analysis. The kinetics of photoinactivation and photopotentiation were obtained by fitting currents with a single exponential function as follows: Y = A*exp(-t/τ) + C, with A as the initial current amplitude, Tau (τ) the decay time constant, and C the steady-state level. The inhibition by MK-801 was also fit with a monoexponential function. […] Accordingly, and for comparative purposes, only single exponential fits were used when studying MK-801 inhibition. Agonist DRCs were fit with the following Hill equation: Irel = 1/(1 + (EC50 / [ago])^nH), with EC50 and the Hill coefficient (nH) as free parameters. For Mg^2+-DRCs the following equation was used: Irel = 100*(1-(a/(1+[IC50]/[Mg^2+)^nH,)), where a is the maximal current inhibition by Mg^2+. IC50, a, and the Hill coefficient (nH) were set as free parameters.
(In general: Patch clamp records ionic current or voltage across a cell membrane.)

Data set [4] has as its target T1, WT GluN1/GluN2A receptors. Briefly: MK-801 open channel block (kinetics and extent), whole-cell patch-clamp. The conditions noted are these: 1 µM MK-801, WT. The format is cell-based. Also noted: expressed in transfected cells; host or cells: HEK-293 cells (ATCC), PEI transfection, pcDNA3-based vectors. As for the experimental part: as §1, §3, §4, §5
Data set [5] concerns GluN1-Y647PSAA/GluN2A receptors. The description is as above. The format is cell-based, rat. The conditions noted are these: 1 µM MK-801, Y647PSAA mutant. As for the experimental part:
as §1, §3, §4, §5

Data set [6] has as its system GluN1-F654PSAA/GluN2A receptors. Described as above. The format is cell-based, rat. The procedure:
as §1, §3, §4, §5

Data set [7] concerns the target T1, WT GluN1/GluN2A receptors. In words: Magnesium dose-response curves (Mg2+-DRCs), whole-cell patch-clamp. The format is cell-based. Also noted: expressed in transfected cells; host or cells: HEK-293 cells (ATCC), PEI transfection, pcDNA3-based vectors. The procedure:
as §1, §3, §2

The subject of data set [8] is GluN1-Y647PSAA/GluN2A receptors. Described as above. The format is cell-based, rat. The conditions noted are these: Y647PSAA mutant. As for the experimental part:
as §1, §3, §4, §5

Data set [9] deals with GluN1-F654PSAA/GluN2A receptors. The description is as above. The format is cell-based, rat. Conditions: F654PSAA mutant. As for the experimental part:
as §1, §3, §4, §5

The nature of data set [10]: UV/Vis spectra of the free PSAA photoisomers. The format is physicochemical. The conditions noted are these: isopropanol, 5 min irradiation at 460 nm. The procedure:
The UV/Vis spectra of the free PSAA (100 μM) were measured using a UVIKON 922 spectrophotometer (Kontron Instruments) in 1 x 1 × 4 cm quartz cuvettes. The spectra were measured at two different conditions: (i) with PSAA in the extracellular (Ringer) solution to be as close as possible to the recording conditions, and (ii) in isopropanol to mimic a hydrophobic environment (since PSAA is buried in the protein) ([Ye et al., 2009]). To induce the different photoisomers, the dissolved PSAA was directly irradiated in the cuvette at 365 nm (30 mW), 460 nm (241 mW), and 525 nm (35 mW) using a Cool LED pE-4000 illumination system. The UV spectra of the pure trans-isomer were recorded upon storage in the dark.

Data set [11] relates to GluN1-P532PSAA/GluN2A receptors. Conditions: PSAA-mutant; for τdeact,UV (example trace) / τdeact,BLUE (example trace): single example trace; for τdeact,BLUE (example trace): blue light. The procedure: as §1, §3, §4
The weighted deactivation time constants were calculated with: τw =( Af/(Af+As))*τf + (As /(Af + As))*τs.

Data set [12] has as its target GluN1-P532PSAA/GluN2A receptors. The conditions noted are these: PSAA-mutant. The procedure:
as §1, §3
Computer-controlled light pulses during electrophysiological recordings were provided from sensitive high power LEDs (Prizmatix).

Data set [13] relates to GluN1-P532PSAA/GluN2A receptors. In words: UV-induced photoinhibition of currents in the presence of ligands (glycine concentrations, competitive antagonists, PAM). The format is cell-based, rat. The procedure:
as §1, §3, §4

[14] abbreviates: 1 µM MK-801, F654PSAA mutant, UV.
Setting [15] is: 1 µM MK-801, F654PSAA mutant, dark.
[16] abbreviates: blue light, read-out: IC50 BLUE.
Setting [17] is: read-out: EC50,BLUE, blue light (460 nm).
The mark [18] stands for this setting: read-out: EC50,DARK, dark, 100 μM of the respective co-agonist.
Setting [19] is: read-out: EC50,UV, UV light (365 nm).

Molecules are shown by their SMILES. Values joined by “and” are separate entries in the source; they are usually repeats but may differ in a detail not shown here. Equal entries are not always repeated. Where two headings read alike, the source gives them in different places. Where only a bound is given, the exact number is not on record here.

T1 sequence (Q00959 23-1464, other chains not shown): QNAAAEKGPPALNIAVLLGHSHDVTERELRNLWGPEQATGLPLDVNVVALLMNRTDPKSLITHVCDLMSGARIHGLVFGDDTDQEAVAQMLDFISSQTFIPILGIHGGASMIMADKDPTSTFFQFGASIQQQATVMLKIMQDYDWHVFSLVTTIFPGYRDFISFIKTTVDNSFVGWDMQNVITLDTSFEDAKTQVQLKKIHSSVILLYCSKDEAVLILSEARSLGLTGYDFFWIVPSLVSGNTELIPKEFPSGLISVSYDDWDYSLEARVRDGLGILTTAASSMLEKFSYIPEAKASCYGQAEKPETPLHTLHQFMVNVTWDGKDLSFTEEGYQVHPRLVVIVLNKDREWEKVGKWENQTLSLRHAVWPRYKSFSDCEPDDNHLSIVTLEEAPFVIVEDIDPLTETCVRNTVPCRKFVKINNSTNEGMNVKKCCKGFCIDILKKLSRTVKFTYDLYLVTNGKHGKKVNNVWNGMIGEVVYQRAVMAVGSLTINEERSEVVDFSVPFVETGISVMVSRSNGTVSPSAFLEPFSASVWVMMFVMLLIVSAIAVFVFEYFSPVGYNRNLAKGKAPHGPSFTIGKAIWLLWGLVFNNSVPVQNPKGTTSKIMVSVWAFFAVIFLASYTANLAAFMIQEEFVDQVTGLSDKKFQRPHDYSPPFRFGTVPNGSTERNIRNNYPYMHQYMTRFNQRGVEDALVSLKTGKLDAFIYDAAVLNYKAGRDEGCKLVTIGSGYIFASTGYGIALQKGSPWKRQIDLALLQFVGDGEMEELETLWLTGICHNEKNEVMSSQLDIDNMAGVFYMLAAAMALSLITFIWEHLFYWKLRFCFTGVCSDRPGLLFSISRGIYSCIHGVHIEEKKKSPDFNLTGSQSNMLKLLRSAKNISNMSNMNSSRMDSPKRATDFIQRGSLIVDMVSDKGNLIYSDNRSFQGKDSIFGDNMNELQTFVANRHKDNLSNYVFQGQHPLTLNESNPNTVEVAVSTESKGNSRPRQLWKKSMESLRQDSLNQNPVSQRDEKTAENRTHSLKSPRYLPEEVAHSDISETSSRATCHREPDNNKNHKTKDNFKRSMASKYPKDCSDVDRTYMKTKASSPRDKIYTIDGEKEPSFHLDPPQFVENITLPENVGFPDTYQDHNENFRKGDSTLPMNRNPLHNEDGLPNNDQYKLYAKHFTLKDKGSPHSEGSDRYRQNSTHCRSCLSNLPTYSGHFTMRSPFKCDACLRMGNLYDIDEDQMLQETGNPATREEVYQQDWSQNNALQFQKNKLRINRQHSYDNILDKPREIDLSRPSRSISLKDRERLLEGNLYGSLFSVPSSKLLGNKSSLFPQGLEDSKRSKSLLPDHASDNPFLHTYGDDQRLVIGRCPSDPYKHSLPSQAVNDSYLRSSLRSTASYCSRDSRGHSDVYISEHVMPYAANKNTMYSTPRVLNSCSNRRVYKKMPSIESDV

`Cc1sc2nc(COc3ccc(F)cc3)cc(=O)n2c1[C@@H]1C[C@H]1CO` [GNE-6901]: the “mean fold-potentiation by PAM” value was 0.9 ± 0.04 fold in [1] (GNE-6901 30 µM, PSAA mutant, cis and trans pooled); 2.3 ± 0.3 fold in [2] (GNE-6901 30 µM, WT). For the same molecule, the entries for the “effect of PAM application” value in [1] (GluN1-P532PSAA mutant receptors) and in [2] (WT receptors) were “entirely unaffected” and “strongly potentiated”, respectively. Besides, the “fold potentiation (example trace)” value in data set [2] (GNE-6901 30 µM, WT, example trace) came to 2.3 fold.
Regarding `C[C@]12N[C@H](Cc3ccccc31)c1ccccc12` [MK-801], the “time constant of MK-801 inhibition τUV (example trace)” value in data set [3] (1 µM MK-801, P532PSAA mutant, UV, example) is given as 3200 ms. For the same molecule, the “single-exponential time constant of MK-801 inhibition τUV” value came to 1820 ± 290 ms in data set [3] (1 µM MK-801, P532PSAA mutant, UV, mean); 620 ± 50 ms in [4] (UV, mean); 4150 ± 910 ms in data set [5] (UV, mean); 730 ± 70 ms in [6] (1 µM MK-801, F654PSAA mutant, UV, mean). Besides, the “time constant of MK-801 inhibition τDARK (example trace)” value in data set [3] (1 µM MK-801, P532PSAA mutant, dark, example) is recorded as 470 ms. Also, the “single-exponential time constant of MK-801 inhibition τDARK” value in data set [3] (1 µM MK-801, P532PSAA mutant, dark, mean) is 940 ± 160 ms; in data set [4] (dark, mean), 690 ± 140 ms; in [5] (dark, mean), 5070 ± 580 ms; in [6] (1 µM MK-801, F654PSAA mutant, dark, mean), 3070 ± 560 ms. The “fold slower MK-801 blocking kinetics” value in [3] (P532PSAA mutant in dark state vs WT) was ~ 1.3 fold. In addition, the “fold slower MK-801 inhibition rates” value in [3] (P532PSAA mutant under UV exposure) is given as ~ 2 fold. The “mean extent of block produced by MK-801, BlockUV” value in [4] (UV) is 98 ± 1%; in data set [5] (UV), 86 ± 3% and > 85%; in data set [6] (setting [14]), 97 ± 1%. In addition, the “time constant of MK-801 inhibition (example trace)” value turned out to be 700 ms in [4] (UV); 600 ms in data set [4] (dark); 3300 ms in data set [5] (UV); 4400 ms in [5] (dark); 1000 ms in [6] (setting [14]); 3970 ms in data set [6] (setting [15]). Further, the “single-exponential time constant of MK-801 inhibition τBLUE” value in [4] (blue, mean) is 610 ± 90 ms. Further, the “mean extent of block produced by MK-801, BlockDARK” value is 97 ± 1% in [4] (dark); 69 ± 5% and 69% in [5] (dark (trans)); 90 ± 3% in [6] (setting [15]). The “degree of MK-801 block” value in data set [6] (F654PSAA receptors, across light conditions) was no less than 90%.
For orientation: IC50 means the point on the concentration scale where inhibition reaches its midpoint. For the molecule `[Mg+2]` [Mg^2+], the half-inhibitory concentration (IC50) was 35.8 µM in [7] (UV light, read-out: IC50 UV); 32.6 µM in data set [7] (setting [16]); 34.6 µM in data set [7] (dark, nominal Mg2+ concentrations, read-out: IC50 DARK); 41.5 µM in [8] (UV light, read-out: IC50,UV); 102 µM in data set [8] (blue light, read-out: IC50,BLUE); 103 µM in data set [8] (dark, read-out: IC50,DARK). For the same molecule, the IC50 in data set [9] (UV light, read-out: IC50 UV) turned out to be 33.3 µM; in data set [9] (setting [16]) it was 34.3 µM; in [9] (dark, read-out: IC50 DARK), 30 µM. In data set [8] (dark or blue vs UV), the “fold increase in IC50 under dark or blue light” value stood at 2.5 fold.
In the case of `C=Cc1cccc(/N=N/c2ccc(C[C@H](N)C(=O)O)cc2)c1` [PSAA], the cis/trans ratio in data set [10] is 74%.
In general, EC50 refers to the concentration at which the effect is half-maximal. Turning to `N[C@@H](CCC(=O)O)C(=O)O` [glutamate], in data set [11] (UV), the “τdeact,UV (example trace)” value is reported as 77.7 ms. The “τdeact,BLUE (example trace)” value in [11] is 79.2 ms. Also, in data set [11], the “mean weighted deactivation time constant τdeact,DARK” value is 113 ± 36 ms. Also, the EC50 in data set [12] (setting [17]) is 13.3 µM; in [12] (setting [18]), 14.6 µM; in data set [12] (setting [19]) it was 17.1 µM.
As for `NCC(=O)O` [glycine], the “mean photoinhibition degree Inh1” value in [13] (1 μM glycine) was roughly 95%. Moreover, the “mean photoinhibition degree Inh10” value in [13] (10 μM glycine) came to 76.1 ± 2%. The “mean photoinhibition degree Inh100” value in [13] (100 μM glycine) is reported as 49.9 ± 2.5%. For the same molecule, the “mean photoinhibition degree Inh1000” value in [13] (1000 μM glycine) came out at 33.5 ± 2%. Besides, in data set [11] (UV), the “mean weighted deactivation time constant τdeact,UV” value is on record as 81 ± 4 ms and the “τdeact,UV (example trace)” value turned out to be 75.4 ms. Further, in data set [11], the “τdeact,BLUE (example trace)” value was 131.3 ms and the “mean weighted deactivation time constant τdeact,DARK” value is on record as 111 ± 9 ms. The EC50 in [12] (setting [17]) is 1.5 µM. Moreover, in data set [12] (setting [18]), the EC50 is 1.5 µM. For the same molecule, the concentration for a half-maximal effect (EC50) in [12] (setting [19]) stood at 10.5 µM.
